Marks after values point to notes of the source that are not given here.
What was measured:
[1] = UV-Visible absorption spectra; assay type: physicochemical; details: for λmax (absorption): MeOH; for λmax (Absorption/nm): Water
Method: (§1) NMR spectra were recorded using a Varian VXR-300 FT-NMR, operating at 300 MHz for ^1H NMR and at 75.4 MHz for ^13C NMR. UV-Visible spectra were recorded using a Varian Cary 100 dual beam spectrophotometer. Corrected steady-state fluorescence spectra were obtained with a PTI spectrometer. A 1 cm square quartz cuvette was used for solution spectra, and emission was collected at 90° relative to excitation beam. Fluorescence quantum yields are reported relative to known standards. The optical density of solutions at the excitation wavelength was ≦0.1, and corrections were applied for differences in the refractive index of standard and sample solutions. Transient absorption spectra were collected using a laser systems that is described elsewhere.^17,18 The optical density of the solutions was adjusted to ˜0.7 at the excitation wavelength (355 nm) with the laser energy set at 6-7 mJ. Solutions were purged with argon for 45 min before making transient absorption spectroscopy measurements. Singlet oxygen quantum yields were measured using a Photon Technology International Quantamaster near-IR spectrophotometer equipped with an InGaAs photodiode detector, optical chopper and a lock in amplifier.

[2] = Steady-state fluorescence spectra and fluorescence quantum yields relative to known standards; assay type: physicochemical
Method: as §1

Fluorescence lifetime = assay type: physicochemical; details: component amplitude in brackets
[3] = Transient absorption spectroscopy (triplet excited state); assay type: physicochemical; details: for TTAbs (ΔA, t = 0): methanol, Abs=0.7 at λex, λex=355 nm for 4a and 4b, 425 nm for 4c, immediately following the laser pulse
Method: Transient absorption experiments were carried out both in methanol and in water (excitation at 355 nm, 5 ns pulse, […] fluence). […] The important photophysical data obtained in methanol solution are consolidated in Table 1 (see supporting information for data in aqueous solution). FIGS. 5 and 6 compare transient absorption difference spectra obtained immediately following the laser pulse in methanol. […] Pulse energy and ground state absorption matched. […] The response curves from each of the repetitive time increments is indicated by sequential numbers 1-8 in both FIGS. 6A and 6B. Samples were purged with argon for 45 min before the measurements. A higher life time is observed for the triplet excited state in water than in methanol.
as §1

[4] = Singlet oxygen quantum yield (sensitization, emission at 1260 nm); assay type: physicochemical; details: CD3OD; 2′-acetonaphthone (ΦΔ = 0.79) as actinometer
Description: The important and necessary feature of the biocidal agents triggered by light is their ability to sensitize the formation of singlet oxygen. Having established the formation of triplet state by direct excitation of the oligomers 4a and 4b (but not 4c), we determined their ability to sensitize singlet oxygen in deuterated methanol (ΦΔ, Table 1). […] From the above results it is evident that the oligomer with terthiophene back bone is the most efficient sensitizer for singlet oxygen.
as §1

[5] = test system: Staphylococcus aureus (ATCC 10832); test: Antibacterial studies, dead/live assay by flow cytometry (SYTO21 / propidium iodide); assay type: cell-based; details: for dark antibacterial activity / dark toxicity (in words) / light-dependent toxicity versus the bacterial cells (in words) / percentage of killed S. aureus cells: 1 μg/mL oligomer; for dark antibacterial activity / dark toxicity (in words) / light-dependent toxicity versus the bacterial cells (in words): up to 90 min
Description: There has been an increasing interest in the prevention of staphylococcal infections because of the increasing number of infections caused by methicillin-resistant S. aureus (MRSA), which is the most common cause of hospital-acquired infections. Our previous studies with oligo (phenylene ethynylene) type oligomers have clearly established that these oligomers are effective against variety of bacteria in the presence of light. […] As our objective is to develop visible light activated biocidal oligomers, we investigated the antibacterial activity of compounds 4a-c and against Staphylococcus aureus (S. aureus). After oligomer solutions were incubated with S. aureus under visible light illumination or in the dark, the antibacterial effect of the three oligomers was evaluated at time 0, 15, 30, 45, 60, and 90 min by flow cytometry analysis after staining the bacterial suspensions with live/dead fluorescent dyes (SYTO21, green fluorescence=live, and propidium iodide, red fluorescence=dead). FIGS. 7 and 8 show plots of the percentage of dead bacteria cells versus light exposure time of the thiophene-based oligomeric series at […]. […] The antibacterial efficiency of three oligomers increases with increasing irradiation time. In the control sample where oligomers were not added to the bacterial suspension most cells (>90% as shown in flow cytometry data) were viable and appear green fluorescence. Dark antibacterial activity was not observed from 4a and 4b; however, 4c kills ˜27% of bacteria after 90 min of incubation of bacteria with 4c.
Staphylococcus aureus (ATCC 10832, American Type Culture Collection) was grown in Brain Heart Infusion (BHI, Difco) and stored at […] with 20% (v/v) glycerol (EMD) before use. Stock cultures maintained on agar plates (2%, Difco) were used to inoculate 50 mL cultures in liquid BHI. The cultures were incubated at 37° C. for 18 hours. The bacteria were then centrifuged and washed twice with 0.85% NaCl followed by counting in a hemocytometer to normalize bacterial concentration in 20 mL of 0.85% NaCl (8×10^6 cells/mL) for antibacterial tests. Control samples containing only bacterial cells, and desired concentrations of oligomer/bacteria mixture samples were exposed to the visible light for 15, 30, 45, 60 and 90 min in a LuzChem ORG photoreactor using Sylvania T5 bulbs (λ=350-799 nm). Another set of samples were incubated in the dark for 15, 30, 45, 60 and 90 min. Then dead/live assays were conducted using SYTO21 (green fluorescence=live) and propidium iodide (red fluorescence=dead) purchased from Invitrogen. After bacteria were incubated with the oligomers in the light and dark conditions, a 1:1 ratio of dyes (2.4 μL) were added to the samples and kept in the dark for 15 min. Finally, the bacteria were examined using an Accuri C6 flow cytometer where 2×10^4 cells were analyzed from 8×10^6 cell solution. The number of live cells and dead cells corresponding to green and red fluorescence respectively were counted and compared by flow cytometry. Results are shown graphically in FIGS. 7 and 8.

[6] = test system: Staphylococcus aureus (ATCC 10832); test: as above; assay type: cell-based; details: visible light substituted with UV light
[7] = MeOH, quinine sulfate in 0.1M sulfuric acid (ΦF = 0.54) as actinometer
[8] = Water, quinine sulfate in 0.1M sulfuric acid (ΦF = 0.54) as actinometer
[9] = visible light, 90 min of irradiation

## C[N+](C)(C)CCCc1ccc(-c2ccc(-c3ccc(CCC[N+](C)(C)C)s3)s2)s1.[Cl-].[Cl-] [4a]
[1]
  λmax (absorption): 364 nm
  λmax (Absorption/nm): 368 nm
[1]; red shift for 4a, blue shift for 4b and 4c
  shift of absorption in water compared to methanol: ~4 nm
[2]; MeOH
  λmax (fluorescence): 437 nm
[2]; [7]
  ΦF (fluorescence quantum yield): 0.06 ± 0.02
[2]; Water
  λmax (Fluorescence/nm): 437 nm
[2]; [8]
  ΦF (fluorescence quantum yield): 0.058 ± 0.02
Fluorescence lifetime; MeOH, 4a at 450 nm
  τF/ns (MeOH): 0.18 ns
Fluorescence lifetime; Water, 4a 450 nm, 4b 500 nm, 4c 600 nm
  τF/ns (Water): 0.19 ns
[3]
  TTAbs (λ/nm)/MeOH: 467 nm
  TTAbs (ΔA, t = 0): 0.55
[3]; Water
  TTAbs (ΔA, t = 0) in Water: 0.43
  TTAbs (λ/nm) in Water: 467 nm
  τtriplet (μs) in Water: 17.9 μs
[4]
  ΦΔ (singlet oxygen quantum yield): 0.74 ± 0.02
[5]; dark
  dark antibacterial activity / dark toxicity (in words): not observed
[5]; in the presence of light, 5 and 10 μg/mL
  biocidal activity at higher concentrations (in words): virtually eliminates the bacterial population within a few minutes
[5]; in the presence of light, within 30 minutes
  concentration at which the compound is an effective biocide: ≥ 1 µg/mL
[5]; visible light
  light-dependent toxicity versus the bacterial cells (in words): marked light-dependent toxicity
[5]; [9]
  percentage of killed S. aureus cells: ~93%
[6]
  light activated antibacterial activity under UV light (in words): the most efficient compound in killing bacteria in the presence of light

## Cn1nc2c(-c3ccc(CCC[N+](C)(C)C)s3)ccc(-c3ccc(CCC[N+](C)(C)C)s3)c2n1.[Cl-].[Cl-] [4b]
[1]
  λmax (absorption): 390 nm
  λmax (Absorption/nm): 385 nm
[2]; MeOH
  λmax (fluorescence): 460 nm
[2]; [7]
  ΦF (fluorescence quantum yield): 0.51 ± 0.02
[2]; Water
  λmax (Fluorescence/nm): 460 nm
[2]; [8]
  ΦF (fluorescence quantum yield): 0.340 ± 0.02
[3]
  TTAbs (λ/nm)/MeOH: 492 nm
  TTAbs (ΔA, t = 0): 0.39
[3]; Water
  TTAbs (λ/nm) in Water: 492 nm
[4]
  ΦΔ (singlet oxygen quantum yield): 0.49 ± 0.03
[5]; dark
  dark antibacterial activity / dark toxicity (in words): not observed
[5]; visible light
  light-dependent toxicity versus the bacterial cells (in words): marked light-dependent toxicity
[5]; [9]
  percentage of killed S. aureus cells: about 35%

## C[N+](C)(C)CCCc1ccc(-c2ccc(-c3ccc(CCC[N+](C)(C)C)s3)c3nsnc23)s1.[Cl-].[Cl-] [4c]
[1]
  λmax (Absorption/nm): 454 nm
[2]; MeOH
  λmax (fluorescence): 615 nm
[2]; MeOH, fluorescein in 0.1M NaOH (ΦF = 0.92) as actinometer
  ΦF (fluorescence quantum yield): 0.23 ± 0.02^b
[2]; Water
  λmax (Fluorescence/nm): 610 nm
[3]
  TTAbs (λ/nm)/MeOH: 529 nm
[3]; Water
  TTAbs (λ/nm) in Water: 529 nm
[4]
  ΦΔ (singlet oxygen quantum yield): no singlet oxygen emission was detected
[5]; dark
  dark antibacterial activity / dark toxicity (in words): significant dark toxicity
[5]; dark, 90 min of incubation
  percentage of killed S. aureus cells: ~27%
[5]; visible light
  light-dependent toxicity versus the bacterial cells (in words): marked light-dependent toxicity
[5]; [9]
  percentage of killed S. aureus cells: about 35%
